≈ marks a conversion by molar mass, not a printed value. Where two headings read alike, the source gives them in different places.
Tests used:
[1] = 4 hour solubility in buffered media (HPLC quantitation); type: physicochemical; conditions: thermodynamic from solid, 25° C.
Protocol: Sufficient sample is suspended in 1.0 ml media for a maximum anticipated concentration of about 10 mg/ml of the free form of the compound. The resulting suspensions are then shaken at 25° C./750 rpm for 4 hours. The pH of the sample solutions is checked after 1 hour to ensure that the desired pH is maintained throughout (+0.2). After equilibration, the appearance is noted, and the final pH of the saturated solution is measured. Samples are then filtered through a glass ‘C’ fibre filter (Particle retention size 1.2 μm), before dilution with buffer as appropriate. Quantitation is by HPLC with reference to a standard solution of approximately 0.15 mg/ml. Different volumes of the standard, diluted and undiluted sample solutions are injected.
The HPLC method for solubility measurements is as follows:
Analysis is performed on an Agilent HP1100/Infinity II 1260 series system equipped with a diode array detector and using OpenLAB software.

[2] = Protocol: XRPD diffractograms are collected on a Bruker D8 diffractometer using Cu Ka radiation (40 kV, 40 mA) and a 0-20 goniometer fitted with a Ge monochromator. The incident beam passes through a 2.0 mm divergence slit followed by a 0.2 mm anti-scatter slit and knife edge. The diffracted beam passes through an 8.0 mm receiving slit with 2.5° Soller slits followed by the Lynxeye Detector. The software used for data collection and analysis is Diffrac Plus XRD Commander and Diffrac Plus EVA respectively. Samples are run under ambient conditions as flat plate specimens using powder as received. The sample is prepared on a polished, zero-background (510) silicon wafer by gently pressing onto the flat surface or packed into a cut cavity. The sample is rotated in its own plane.
The details of the standard data collection method are: • Angular range: 2 to 42° 20 • Step size: 0.05° 20 • Collection time: 0.5 s/step (total collection time: 6.40 min)

[3] = remark: listed apart in the source
Protocol: Sorption isotherms are obtained using a Hiden IGASorp moisture sorption analyser, controlled by Isochema HISorp software. The sample temperature is maintained at 25° C. by a Grant LT ecocool 150 re-circulating water bath. The humidity is controlled by mixing streams of dry and wet nitrogen, with a total flow rate of 250 ml/min. The relative humidity is measured by a calibrated Vaisala RH probe (dynamic range of 0-95% RH), located near the sample. The weight change, (mass relaxation) of the sample as a function of % RH is constantly monitored by the microbalance (accuracy±0.001 mg). Typically, 20-30 mg of sample is placed in a tared mesh stainless steel basket under ambient conditions. The sample is loaded and unloaded at 40% RH and 25° C.(typical room conditions). A moisture sorption isotherm is performed as outlined below (2 scans, giving 1 complete cycle). The standard isotherm is performed at 25° C. at 10% RH intervals over a 0-90% RH range.

Nc1ccccc1NC(=O)c1ccc(CNC(=O)OCc2cccnc2)cc1 [U.S. Pat. No. 7,973,166 Polymorph A, N-(2-aminophenyl)-4-[N-(pyridine-3-yl)-methoxycarbonylamino-methyl]-benzamide]
solubility at 4 h ([1]; aqueous buffer, pH 4.5 acetate buffer): 190 µg/mL (≈ 505 µM) | solubility at 4 h ([1]; aqueous buffer, pH 6.8 phosphate buffer): 75 µg/mL (≈ 199 µM) | solubility at 4 h ([1]; aqueous buffer, pH 7.5 phosphate buffer): 72 µg/mL (≈ 191 µM) | solubility at 4 h ([1]; buffer pH 2.8, aqueous buffer, pH 2.8 buffer): 5900 µg/mL (≈ 15700 µM) | solubility at 4 h ([1]; simulated gastric fluid, pH 1.2 hydrochloric acid buffer): > 7900 µg/mL

Nc1ccccc1NC(=O)c1ccc(CNC(=O)OCc2cccnc2)cc1.O=C(O)C=CC(=O)O
stability of crystalline form (no change in form by XRPD) ([2]; 40° C./75% RH): stable at 40° C./75% RH for at least two weeks

Nc1ccccc1NC(=O)c1ccc(CNC(=O)OCc2cccnc2)cc1.O=C(O)CCC(=O)O [Form A of entinostat compound with succinic acid]
reversible water uptake by GVS ([3]; 25° C., 0-90% RH): ~0.5 wt % | post GVS XRPD, change of crystalline form ([3]; after GVS cycle): no change in crystalline form | time the form remains stable, as evidenced by XRPD ([2]; 25° C./97% RH): at least 28 days | time the form remains stable, as evidenced by XRPD ([2]; 40° C./75% RH): at least 28 days

Nc1ccccc1NC(=O)c1ccc(CNC(=O)OCc2cccnc2)cc1.O=C(O)CCC(=O)O [Form B of entinostat compound with succinic acid]
time the form remains stable, as evidenced by XRPD ([2]; 40° C./75% RH): at least 7 days

Nc1ccccc1NC(=O)c1ccc(CNC(=O)OCc2cccnc2)cc1.O=C(O)CCC(=O)O [Form C of entinostat compound with succinic acid]
time the form remains stable, as evidenced by XRPD ([2]; 40° C./75% RH): at least 7 days

Source: US20240239748A1, “NOVEL FORMS OF ENTINOSTAT” (Macfarlan Smith Limited, priority 2021, published 2024)
